Experimental data published in patent US20090226527A1, “Particulate-stabilized injectable pharmacutical compositions of posaconazole” (priority 2004, published 2009).
In brackets after ≈: the same amount, converted by molar mass.

System: infectious agents (strains tested)
Test: organism not typed
Type: cell-based

C[C@@H]1[C@H](O)[C@@H](C)/C=C/C=C/C=C/C=C/C=C/C=C/C=C/[C@H](O[C@@H]2O[C@H](C)[C@@H](O)[C@H](N)[C@@H]2O)C[C@@H]2O[C@](O)(C[C@@H](O)C[C@@H](O)[C@H](O)CC[C@@H](O)C[C@@H](O)CC(=O)O[C@H]1C)C[C@H](O)[C@H]2C(=O)O [Amphotericin]
MIC (Absidia spp, read-out: Geometric Mean MIC): 0.545 µg/mL (≈ 0.59 µM) | MIC (Absidia spp, read-out: MIC[90]): 0.25 to 2 µg/mL (≈ 0.271 to 2.16 µM) | MIC (Alternaria spp, read-out: Geometric Mean MIC): 0.852 µg/mL (≈ 0.922 µM) | MIC (Alternaria spp, read-out: MIC[90]): 4 µg/mL (≈ 4.33 µM) | MIC (Apophysomyces spp, read-out: Geometric Mean MIC): 0.5 µg/mL (≈ 0.541 µM) | MIC (Apophysomyces spp, read-out: MIC[90]): 0.031 to 4 µg/mL (≈ 0.0335 to 4.33 µM) | MIC (Aspergillus flavus, read-out: Geometric Mean MIC): 0.91 µg/mL (≈ 0.985 µM) | MIC (Aspergillus flavus, read-out: MIC[90]): 2 µg/mL (≈ 2.16 µM) | MIC (Aspergillus fumigatus, read-out: Geometric Mean MIC): 0.683 µg/mL (≈ 0.739 µM) | MIC (Aspergillus fumigatus, read-out: MIC[90]): 1 µg/mL (≈ 1.08 µM) | MIC (Aspergillus nidulans, read-out: Geometric Mean MIC): 0.758 µg/mL (≈ 0.82 µM) | MIC (Aspergillus nidulans, read-out: MIC[90]): 2 µg/mL (≈ 2.16 µM) | MIC (Aspergillus niger, read-out: Geometric Mean MIC): 0.36 µg/mL (≈ 0.39 µM) | MIC (Aspergillus niger, read-out: MIC[90]): 1 µg/mL (≈ 1.08 µM) | MIC (Aspergillus sydowii, read-out: Geometric Mean MIC): 1.26 µg/mL (≈ 1.36 µM) | MIC (Aspergillus sydowii, read-out: MIC[90]): 1 to 2 µg/mL (≈ 1.08 to 2.16 µM) | MIC (Aspergillus terreus, read-out: Geometric Mean MIC): 1.76 µg/mL (≈ 1.9 µM) | MIC (Aspergillus terreus, read-out: MIC[90]): 4 µg/mL (≈ 4.33 µM) | MIC (Aspergillus ustus, read-out: Geometric Mean MIC): 0.673 µg/mL (≈ 0.728 µM) | MIC (Aspergillus ustus, read-out: MIC[90]): 0.25 to 1 µg/mL (≈ 0.271 to 1.08 µM) | MIC (Bipolaris spp, read-out: Geometric Mean MIC): 0.25 µg/mL (≈ 0.271 µM) | MIC (Bipolaris spp, read-out: MIC[90]): 0.25 µg/mL (≈ 0.271 µM) | MIC (Bjerkandera adusta, read-out: Geometric Mean MIC): 0.215 µg/mL (≈ 0.233 µM) | MIC (Bjerkandera adusta, read-out: MIC[90]): 0.25 µg/mL (≈ 0.271 µM) | MIC (Blastomyces dermatitidis, read-out: Geometric Mean MIC): 0.153 µg/mL (≈ 0.166 µM) | MIC (Blastomyces dermatitidis, read-out: MIC[90]): 0.5 µg/mL (≈ 0.541 µM) | MIC (Candida albicans, read-out: Geometric Mean MIC): 0.686 µg/mL (≈ 0.742 µM) | MIC (Candida albicans, read-out: MIC[90]): 1 µg/mL (≈ 1.08 µM) | MIC (Candida dubliniensis, read-out: Geometric Mean MIC): 0.513 µg/mL (≈ 0.555 µM) | MIC (Candida dubliniensis, read-out: MIC[90]): 1 µg/mL (≈ 1.08 µM) | MIC (Candida tropicalis, read-out: Geometric Mean MIC): 0.774 µg/mL (≈ 0.838 µM) | MIC (Candida tropicalis, read-out: MIC[90]): 1 µg/mL (≈ 1.08 µM) | MIC (Clavispora lusitaniae, Candida lusitaniae, read-out: Geometric Mean MIC): 0.506 µg/mL (≈ 0.548 µM) | MIC (Clavispora lusitaniae, Candida lusitaniae, read-out: MIC[90]): 1 µg/mL (≈ 1.08 µM) | MIC (Coccidioides immitis, read-out: Geometric Mean MIC, Coccidioides immitis): 0.39 µg/mL (≈ 0.422 µM) | MIC (Coccidioides immitis, read-out: MIC[90], Coccidioides immitis): 0.5 µg/mL (≈ 0.541 µM) | MIC (Cryptococcus neoformans, read-out: Geometric Mean MIC): 0.667 µg/mL (≈ 0.722 µM) | MIC (Cryptococcus neoformans, read-out: MIC[90]): 1 µg/mL (≈ 1.08 µM) | MIC (Curvularia spp, read-out: Geometric Mean MIC): 0.5 µg/mL (≈ 0.541 µM) | MIC (Curvularia spp, read-out: MIC[90]): 0.5 µg/mL (≈ 0.541 µM) | MIC (Debaryomyces hansenii, Candida famata, read-out: Geometric Mean MIC): 0.841 µg/mL (≈ 0.91 µM) | MIC (Debaryomyces hansenii, Candida famata, read-out: MIC[90]): 2 µg/mL (≈ 2.16 µM) | MIC (Diutina rugosa, Candida rugosa, read-out: Geometric Mean MIC): 0.665 µg/mL (≈ 0.72 µM) | MIC (Diutina rugosa, Candida rugosa, read-out: MIC[90]): 1 µg/mL (≈ 1.08 µM) | MIC (Dujonia zeylanoides, Candida zeylanoides, read-out: Geometric Mean MIC): 1 µg/mL (≈ 1.08 µM) | MIC (Dujonia zeylanoides, Candida zeylanoides, read-out: MIC[90]): 1 µg/mL (≈ 1.08 µM) | MIC (Exophiala dermatidis, read-out: Geometric Mean MIC): 0.5 µg/mL (≈ 0.541 µM) | MIC (Exophiala dermatidis, read-out: MIC[90]): 0.5 µg/mL (≈ 0.541 µM) | MIC (Exophiala dermatitidis, Wangiella dermatitidis, read-out: Geometric Mean MIC): 0.63 µg/mL (≈ 0.682 µM) | MIC (Exophiala dermatitidis, Wangiella dermatitidis, read-out: MIC[90]): 0.25 to 1 µg/mL (≈ 0.271 to 1.08 µM) | MIC (Exophiala jeanselmei, read-out: Geometric Mean MIC): 0.66 µg/mL (≈ 0.714 µM) | MIC (Exophiala jeanselmei, read-out: MIC[90]): 1 µg/mL (≈ 1.08 µM) | MIC (Exophiala moniliae, read-out: Geometric Mean MIC): 0.177 µg/mL (≈ 0.192 µM) | MIC (Exophiala moniliae, read-out: MIC[90]): 0.125 to 0.25 µg/mL (≈ 0.135 to 0.271 µM) | MIC (Fonsecae pedrosoi, read-out: Geometric Mean MIC): 1 µg/mL (≈ 1.08 µM) | MIC (Fonsecae pedrosoi, read-out: MIC[90]): 1 µg/mL (≈ 1.08 µM) | MIC (Fusarium spp, read-out: Geometric Mean MIC): 1.2 µg/mL (≈ 1.3 µM) | MIC (Fusarium spp, read-out: MIC[90]): 2 µg/mL (≈ 2.16 µM) | MIC (Hansenula anomala, Pichia anomala, read-out: Geometric Mean MIC): 0.707 µg/mL (≈ 0.765 µM) | MIC (Hansenula anomala, Pichia anomala, read-out: MIC[90]): 1 µg/mL (≈ 1.08 µM) | MIC (Histoplasma capsulatum, read-out: Geometric Mean MIC, Histoplasma capsulatum): 0.25 µg/mL (≈ 0.271 µM) | MIC (Histoplasma capsulatum, read-out: MIC[90], Histoplasma capsulatum): 0.5 µg/mL (≈ 0.541 µM) | MIC (Kluyveromyces marxianus, Candida kefyr, read-out: Geometric Mean MIC): 0.779 µg/mL (≈ 0.843 µM) | MIC (Kluyveromyces marxianus, Candida kefyr, read-out: MIC[90]): 1 µg/mL (≈ 1.08 µM) | MIC (Kluyveromyces marxianus, read-out: Geometric Mean MIC): 1 µg/mL (≈ 1.08 µM) | MIC (Kluyveromyces marxianus, read-out: MIC[90]): 1 µg/mL (≈ 1.08 µM) | MIC (Lodderomyces parapsilosis, Candida parapsilosis, read-out: Geometric Mean MIC): 0.761 µg/mL (≈ 0.824 µM) | MIC (Lodderomyces parapsilosis, Candida parapsilosis, read-out: MIC[90]): 1 µg/mL (≈ 1.08 µM) | MIC (Meyerozyma guilliermondii, Candida guilliermondii, read-out: Geometric Mean MIC): 0.553 µg/mL (≈ 0.598 µM) | MIC (Meyerozyma guilliermondii, Candida guilliermondii, read-out: MIC[90]): 1 µg/mL (≈ 1.08 µM) | MIC (Mucor spp, read-out: Geometric Mean MIC): 0.274 µg/mL (≈ 0.297 µM) | MIC (Mucor spp, read-out: MIC[90]): 1 µg/mL (≈ 1.08 µM) | MIC (Nakaseomyces glabratus, Candida glabrata, read-out: Geometric Mean MIC): 0.798 µg/mL (≈ 0.864 µM) | MIC (Nakaseomyces glabratus, Candida glabrata, read-out: MIC[90]): 1 µg/mL (≈ 1.08 µM) | MIC (Paecilomyces spp, read-out: Geometric Mean MIC): 1.1 µg/mL (≈ 1.19 µM) | MIC (Paecilomyces spp, read-out: MIC[90]): 16 µg/mL (≈ 17.3 µM) | MIC (Papiliotrema laurentii, Cryptococcus laurentii, read-out: Geometric Mean MIC): 0.794 µg/mL (≈ 0.859 µM) | MIC (Papiliotrema laurentii, Cryptococcus laurentii, read-out: MIC[90]): 0.5 to 1 µg/mL (≈ 0.541 to 1.08 µM) | MIC (Paracoccidioides brasiliensis, read-out: Geometric Mean MIC, Paracoccidioides brasiliensis): 0.096 µg/mL (≈ 0.104 µM) | MIC (Paracoccidioides brasiliensis, read-out: MIC[90], Paracoccidioides brasiliensis): 0.25 µg/mL (≈ 0.271 µM) | MIC (Penicillium spp, read-out: Geometric Mean MIC): 1.02 µg/mL (≈ 1.11 µM) | MIC (Penicillium spp, read-out: MIC[90]): 4 µg/mL (≈ 4.33 µM) | MIC (Pichia etchel, read-out: Geometric Mean MIC): 0.063 µg/mL (≈ 0.0682 µM) | MIC (Pichia etchel, read-out: MIC[90]): 0.063 µg/mL (≈ 0.0682 µM) | MIC (Pichia kudriavzevii, Candida krusei, read-out: Geometric Mean MIC): 0.976 µg/mL (≈ 1.06 µM) | MIC (Pichia kudriavzevii, Candida krusei, read-out: MIC[90]): 2 µg/mL (≈ 2.16 µM) | MIC (Pleurothecium obovoideum, Ramichloridium obovoideum, read-out: Geometric Mean MIC): 1 µg/mL (≈ 1.08 µM) | MIC (Pleurothecium obovoideum, Ramichloridium obovoideum, read-out: MIC[90]): 1 µg/mL (≈ 1.08 µM) | MIC (Rhizomucor spp, read-out: Geometric Mean MIC): 0.063 µg/mL (≈ 0.0682 µM) | MIC (Rhizomucor spp, read-out: MIC[90]): 0.063 µg/mL (≈ 0.0682 µM) | MIC (Rhizopus spp, read-out: Geometric Mean MIC): 0.635 µg/mL (≈ 0.687 µM) | MIC (Rhizopus spp, read-out: MIC[90]): 2 µg/mL (≈ 2.16 µM) | MIC (Saccharomyces cerevisiae, read-out: Geometric Mean MIC): 0.775 µg/mL (≈ 0.839 µM) | MIC (Saccharomyces cerevisiae, read-out: MIC[90]): 1 µg/mL (≈ 1.08 µM) | MIC (Scedosporium apiospermum, read-out: Geometric Mean MIC): 2.27 µg/mL (≈ 2.46 µM) | MIC (Scedosporium apiospermum, read-out: MIC[90]): 8 µg/mL (≈ 8.66 µM) | MIC (Scedosporium boydii, Pseudallescheria boydii, read-out: Geometric Mean MIC): 1.72 µg/mL (≈ 1.86 µM) | MIC (Scedosporium boydii, Pseudallescheria boydii, read-out: MIC[90]): 4 µg/mL (≈ 4.33 µM) | MIC (Sporothrix schenckii, read-out: Geometric Mean MIC): 0.574 µg/mL (≈ 0.621 µM) | MIC (Sporothrix schenckii, read-out: MIC[90]): 1 µg/mL (≈ 1.08 µM) | MIC (Trichophyton mentagrophytes, read-out: Geometric Mean MIC): 1 µg/mL (≈ 1.08 µM) | MIC (Trichophyton mentagrophytes, read-out: MIC[90]): 1 µg/mL (≈ 1.08 µM) | MIC (Trichophyton tonsurans, read-out: Geometric Mean MIC): 1.26 µg/mL (≈ 1.36 µM) | MIC (Trichophyton tonsurans, read-out: MIC[90]): 0.5 to 8 µg/mL (≈ 0.541 to 8.66 µM) | MIC (Trichosporon spp, read-out: Geometric Mean MIC): 1.32 µg/mL (≈ 1.43 µM) | MIC (Trichosporon spp, read-out: MIC[90]): 1 to 2 µg/mL (≈ 1.08 to 2.16 µM) | MIC (Yarrowia lipolytica, read-out: Geometric Mean MIC): 0.5 µg/mL (≈ 0.541 µM) | MIC (Yarrowia lipolytica, read-out: MIC[90]): 0.5 µg/mL (≈ 0.541 µM)
